The supplement of paper PMC10307832

Assays:
Experiment in all cases: relative viability (nuclei count vs DMSO), 5 days (fraction); higher = more cells survive
[1] = compound: COc1cc2ncn(-c3cc(OCc4ccccc4C(F)(F)F)c(C(N)=O)s3)c2cc1OC
Method in brief: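 Cells of lung cancer lines were placed in 1536-well plates and kept overnight at 37 °C. Pinning then delivered five library-drug doses (not always all listed), spaced by √10, onto plates anchored with vehicle, and the cells were left 5 days without changing medium. One step fixed, permeabilised and stained them with Hoechst, and MetaXpress counted nuclei in 4× images. Viability, as a median over plates, is treated-well nuclei divided by vehicle-well nuclei, with acceptance only at control CV below 25% and at least one doubling.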

[2] = compound: COc1cc2ncn(-c3cc(OCc4ccccc4C(F)(F)F)c(C(N)=O)s3)c2cc1OC + CCNC(=O)c1noc(-c2cc(C(C)C)c(O)cc2O)c1-c1ccc(CN2CCOCC2)cc1 [Luminespib] (partner 0.01 µM)
Method in brief: (§1)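 Lung cancer cell lines, seeded in 1536-well plates, were treated the following day by pin tool with a single drug or with five library-drug doses (not always all listed) in √10 steps on top of a fixed anchor-drug dose. Cells were fixed and nuclei stained in one step after 5 days, and nuclei were counted. Relative viability is the nuclei count for treated wells divided by that for vehicle wells, reported as medians of duplicate plates.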

[3] = compound: COc1cc2ncn(-c3cc(OCc4ccccc4C(F)(F)F)c(C(N)=O)s3)c2cc1OC + COc1cc2c(Oc3ccc(NC(=O)C4(C(=O)Nc5ccc(F)cc5)CC4)cc3F)ccnc2cc1OCCCN1CCOCC1 [Foretinib] (partner 0.25 µM)
Method in brief: as §1

[4] = compound: COc1cc2ncn(-c3cc(OCc4ccccc4C(F)(F)F)c(C(N)=O)s3)c2cc1OC + COc1cccc2cc(-c3nc([C@H]4CC[C@H](C(=O)O)CC4)n4ncnc(N)c34)[nH]c12 [OSI-027] (partner 0.5 µM)
Method in brief: as §1

[5] = compound: COc1cc2ncn(-c3cc(OCc4ccccc4C(F)(F)F)c(C(N)=O)s3)c2cc1OC + Cc1cc(Nc2cc(N3CCN(C)CC3)nc(Sc3ccc(NC(=O)C4CC4)cc3)n2)n[nH]1 [Tozasertib] (partner 0.1 µM)
Method in brief: as §1

[6] = compound: COc1cc2ncn(-c3cc(OCc4ccccc4C(F)(F)F)c(C(N)=O)s3)c2cc1OC + Cc1nc(Nc2ncc(C(=O)Nc3c(C)cccc3Cl)s2)cc(N2CCN(CCO)CC2)n1 [Dasatinib] (partner 0.075 µM)
Method in brief: as §1

[7] = compound: COc1cc2ncn(-c3cc(OCc4ccccc4C(F)(F)F)c(C(N)=O)s3)c2cc1OC + N=C(N)NC(=N)NCCc1ccccc1 [Phenformin] (partner 250 µM)
Method in brief: as §1

[8] = compound: COc1cc2ncn(-c3cc(OCc4ccccc4C(F)(F)F)c(C(N)=O)s3)c2cc1OC + CC(=O)Nc1cccc(-n2c(=O)n(C3CC3)c(=O)c3c(Nc4ccc(I)cc4F)n(C)c(=O)c(C)c32)c1 [Trametinib] (partner 0.02 µM)
Method in brief: as §1

[9] = compound: COc1cc2ncn(-c3cc(OCc4ccccc4C(F)(F)F)c(C(N)=O)s3)c2cc1OC + CC(=O)c1c(C)c2cnc(Nc3ccc(N4CCNCC4)cn3)nc2n(C2CCCC2)c1=O [Palbociclib] (partner 0.5 µM)
Method in brief: as §1

[10] = compound: COc1cc2ncn(-c3cc(OCc4ccccc4C(F)(F)F)c(C(N)=O)s3)c2cc1OC + NC(=O)Nc1cc(-c2cccc(F)c2)sc1C(=O)N[C@H]1CCCNC1 [AZD7762] (partner 0.2 µM)
Method in brief: as §1

[11] = compound: COc1cc2ncn(-c3cc(OCc4ccccc4C(F)(F)F)c(C(N)=O)s3)c2cc1OC + Nc1nc2[nH]cc(CCc3ccc(C(=O)N[C@@H](CCC(=O)O)C(=O)O)cc3)c2c(=O)[nH]1 [Pemetrexed] (partner 0.2 µM)
Method in brief: as §1

[12] = compound: COc1cc2ncn(-c3cc(OCc4ccccc4C(F)(F)F)c(C(N)=O)s3)c2cc1OC + Nc1ncn([C@H]2C[C@H](O)[C@@H](CO)O2)c(=O)n1 [Decitabine] (partner 2 µM)
Method in brief: as §1

[13] = compound: COc1cc2ncn(-c3cc(OCc4ccccc4C(F)(F)F)c(C(N)=O)s3)c2cc1OC + O=C(CCCCCCC(=O)Nc1ccccc1)NO [Vorinostat] (partner 1 µM)
Method in brief: as §1

[14] = compound: COc1cc2ncn(-c3cc(OCc4ccccc4C(F)(F)F)c(C(N)=O)s3)c2cc1OC + O=C(c1cc(Cc2n[nH]c(=O)c3ccccc23)ccc1F)N1CCN(C(=O)C2CC2)CC1 [Olaparib] (partner 8 µM)
Method in brief: as §1

NCI-H1623 showed a relative viability ([1]; 0.05 µM) of 0.962, a relative viability ([1]; 0.1581 µM) of 0.975 and a relative viability ([1]; 0.5 µM) of 0.694. The relative viability ([1]; 1.581 µM) was 0.439, the relative viability ([1]; 5 µM) was 0.758 and the relative viability ([2]; first compound 0.05 µM) was 0.49. The relative viability ([2]; first compound 0.1581 µM) was 0.485, the relative viability ([2]; first compound 0.5 µM) was 0.435 and the relative viability ([2]; first compound 5 µM) was 0.37. It also gave a relative viability ([3]; first compound 0.05 µM) of 0.824, a relative viability ([3]; first compound 0.1581 µM) of 0.723 and a relative viability ([3]; first compound 0.5 µM) of 0.62. For the same cell line, the relative viability ([3]; first compound 1.581 µM) was 0.426, the relative viability ([3]; first compound 5 µM) was 0.694 and the relative viability ([4]; first compound 0.05 µM) was 0.478. For the same cell line, the relative viability ([4]; first compound 0.1581 µM) was 0.429, the relative viability ([4]; first compound 0.5 µM) was 0.376 and the relative viability ([4]; first compound 1.581 µM) was 0.281. It also gave a relative viability ([4]; first compound 5 µM) of 0.349, a relative viability ([5]; first compound 0.05 µM) of 0.438 and a relative viability ([5]; first compound 0.1581 µM) of 0.382. It also gave a relative viability ([5]; first compound 0.5 µM) of 0.386, a relative viability ([5]; first compound 5 µM) of 0.399 and a relative viability ([6]; first compound 0.05 µM) of 0.525. It also gave a relative viability ([6]; first compound 0.1581 µM) of 0.447, a relative viability ([6]; first compound 0.5 µM) of 0.508 and a relative viability ([6]; first compound 5 µM) of 0.557. The relative viability ([7]; first compound 0.05 µM) was 0.588, the relative viability ([7]; first compound 0.1581 µM) was 0.395 and the relative viability ([7]; first compound 0.5 µM) was 0.463. The relative viability ([7]; first compound 5 µM) was 0.576.

With SW 900 the relative viability ([1]; 0.05 µM) was 0.91, the relative viability ([1]; 0.1581 µM) was 0.827 and the relative viability ([1]; 0.5 µM) was 0.638. The relative viability ([1]; 1.581 µM) was 0.275, the relative viability ([1]; 5 µM) was 0.176 and the relative viability ([8]; first compound 0.05 µM) was 0.639. The relative viability ([8]; first compound 0.1581 µM) was 0.778, the relative viability ([8]; first compound 0.5 µM) was 0.649 and the relative viability ([8]; first compound 1.581 µM) was 0.433. It also gave a relative viability ([8]; first compound 5 µM) of 0.124, a relative viability ([9]; first compound 0.05 µM) of 0.478 and a relative viability ([9]; first compound 0.1581 µM) of 0.5. It also gave a relative viability ([9]; first compound 0.5 µM) of 0.499, a relative viability ([9]; first compound 1.581 µM) of 0.399 and a relative viability ([9]; first compound 5 µM) of 0.257. The relative viability ([2]; first compound 0.05 µM) was 0.183, the relative viability ([2]; first compound 0.1581 µM) was 0.165 and the relative viability ([2]; first compound 0.5 µM) was 0.205. It also gave a relative viability ([2]; first compound 1.581 µM) of 0.171, a relative viability ([2]; first compound 5 µM) of 0.16 and a relative viability ([3]; first compound 0.05 µM) of 0.857. It also gave a relative viability ([3]; first compound 0.1581 µM) of 0.818, a relative viability ([3]; first compound 0.5 µM) of 0.7 and a relative viability ([3]; first compound 1.581 µM) of 0.41. For the same cell line, the relative viability ([3]; first compound 5 µM) was 0.169, the relative viability ([4]; first compound 0.05 µM) was 0.59 and the relative viability ([4]; first compound 0.1581 µM) was 0.618. For the same cell line, the relative viability ([4]; first compound 0.5 µM) was 0.364, the relative viability ([4]; first compound 1.581 µM) was 0.173 and the relative viability ([4]; first compound 5 µM) was 0.093. It also gave a relative viability ([5]; first compound 0.05 µM) of 0.685, a relative viability ([5]; first compound 0.1581 µM) of 0.661 and a relative viability ([5]; first compound 0.5 µM) of 0.277. The relative viability ([5]; first compound 1.581 µM) was 0.253, the relative viability ([5]; first compound 5 µM) was 0.244 and the relative viability ([6]; first compound 0.05 µM) was 0.545. It also gave a relative viability ([6]; first compound 0.1581 µM) of 0.604, a relative viability ([6]; first compound 0.5 µM) of 0.5 and a relative viability ([6]; first compound 1.581 µM) of 0.328. The relative viability ([6]; first compound 5 µM) was 0.0938, the relative viability ([7]; first compound 0.05 µM) was 0.538 and the relative viability ([7]; first compound 0.1581 µM) was 0.503. The relative viability ([7]; first compound 0.5 µM) was 0.53, the relative viability ([7]; first compound 1.581 µM) was 0.33 and the relative viability ([7]; first compound 5 µM) was 0.14. For the same cell line, the relative viability ([10]; first compound 0.05 µM) was 0.575, the relative viability ([10]; first compound 0.1581 µM) was 0.538 and the relative viability ([10]; first compound 0.5 µM) was 0.565. For the same cell line, the relative viability ([10]; first compound 1.581 µM) was 0.279, the relative viability ([10]; first compound 5 µM) was 0.156 and the relative viability ([11]; first compound 0.05 µM) was 0.453. The relative viability ([11]; first compound 0.1581 µM) was 0.544, the relative viability ([11]; first compound 0.5 µM) was 0.408 and the relative viability ([11]; first compound 1.581 µM) was 0.254. The relative viability ([11]; first compound 5 µM) was 0.187, the relative viability ([12]; first compound 0.05 µM) was 0.482 and the relative viability ([12]; first compound 0.1581 µM) was 0.447. It also gave a relative viability ([12]; first compound 0.5 µM) of 0.425, a relative viability ([12]; first compound 1.581 µM) of 0.354 and a relative viability ([12]; first compound 5 µM) of 0.256. It also gave a relative viability ([13]; first compound 0.05 µM) of 0.483, a relative viability ([13]; first compound 0.1581 µM) of 0.417 and a relative viability ([13]; first compound 0.5 µM) of 0.416. For the same cell line, the relative viability ([13]; first compound 1.581 µM) was 0.287, the relative viability ([13]; first compound 5 µM) was 0.154 and the relative viability ([14]; first compound 0.05 µM) was 0.778. The relative viability ([14]; first compound 0.1581 µM) was 0.892, the relative viability ([14]; first compound 0.5 µM) was 0.601 and the relative viability ([14]; first compound 1.581 µM) was 0.201. It also gave a relative viability ([14]; first compound 5 µM) of 0.171.
